Measured values reported in patent publication US9155722B2, “Reconstitutable reverse thermal gelling polymers” (PROTHERICS SALT LAKE CITY, INC., priority 2009, dated 2015).

How the values were obtained:
[1] = Stability of paclitaxel in copolymer solution or gel; assay type: physicochemical
physchem = experiment: physchem
Method: For solubilization studies, the calculated amount of Paclitaxel was add to the block polymers aqueous solution (prepared according to Example 5) and stirred for 10-20 minute at room temperature or 4° C.

[2] = cited from earlier work

Which results are given for `CC(=O)O[C@H]1C(=O)[C@@]2(C)[C@H]([C@H](OC(=O)c3ccccc3)[C@]3(O)C[C@H](OC(=O)[C@H](O)[C@@H](NC(=O)c4ccccc4)c4ccccc4)C(C)=C1C3(C)C)[C@]1(OC(C)=O)CO[C@@H]1C[C@@H]2O` [paclitaxel]?
paclitaxel intact ([1]; 23% by weight aqueous triblock copolymer solutions or gels, after 30 days in storage (2 to 8° C. and 37° C.)): > 90%; paclitaxel degraded ([1]; aqueous cosolvent solution, in less than one week at 37° C.): > 50%; increase in solubility of paclitaxel (physchem): ~3000 fold; solubility (physchem; aqueous with cosolvent or surfactant or cyclodextrin, thermodynamic from solid): ≤ 12 mg/mL; solubility in water [2]: approximately 4 μg/ml
